This is an account of results in US8703815B2, “Small molecules that covalently modify transthyretin” (The Scripps Research Institute, priority 2009, dated 2014).

Type in all cases: binding
One test has as its target T1, WT-TTR (Homo sapiens, UniProt P02766).
T1 construct: composed of 127-residue β-sheet-rich subunits; made in house; host or cells: E. coli
Nature of the test: Fluorimetric assay with recombinant WT-TTR. To be noted: for increase in fluorescence intensity with WT-TTR vs compound alone in buffer: 24 hours. The procedure: WT-TTR was expressed in an E. coli expression system and purified as described previously. […] The samples were vortexed, and incubated for 18 h at 25° C. […] The excitation slit was set at 5 nm and the emission slit was set at […]. The samples were excited at 328 nm and the emission spectra were collected from 350 to 550 nm. WT-TTR was expressed and purified from an E. coli expression system as described previously. [Lashuel et al., Biochemistry 1999, 38:13560]. […] The samples were vortexed, and incubated for 18 hours at 25° C. […] The excitation slits was set at 5 nm and the emission slits was set at […]. The samples were excited at 328 nm and the emission spectra were collected from 330 to 550 nm (FIG. 4). The time-dependent fluorescence changes were monitored in similar manner (FIG. 5).

Test [1] concerns the target T2, K15A-TTR (Homo sapiens, UniProt P02766, K35A).
T2 construct: composed of 127-residue β-sheet-rich subunits; made in house
Nature of the test: Fluorimetric assay with recombinant K15A-TTR. As for the experimental part: [The source words this procedure for another variant and says it was used here with some conditions changed.] The excitation spectra are shown with dotted traces (λmax=328 nm), and emission spectra are adjacently (λmax=384 nm). Very low fluorescence resulted from 328 nm excitation of stilbene Compounds 4 or 2 alone in buffer (FIGS. 4A and 4B; traces substantially on the X-axis).
WT-TTR was expressed in an E. coli expression system and purified as described previously. [Lashuel et al., Biochemistry 1999, 38, 13560-13573] The covalent TTR modifiers (A1 or A2) or the non-covalent TTR ligand B2 (5 μL of a 1.44 mM solution in DMSO, final concentration: 7.2 μM) were added to 1 mL of a solution of WT-TTR homotetramer (0.2 mg/mL, 3.6 μM) in 10 mM phosphate, 100 mM KCl and 1 mM EDTA (pH 7.0 phosphate buffer) in a 2 mL Eppendorf tube. The samples were vortexed, and incubated for 18 h at 25° C. The fluorescence changes were monitored using a Varian Cary 50 spectrofluorometer at 20° C. in a 1 cm path length quartz cell. The excitation slit was set at 5 nm and the emission slit was set at […]. The samples were excited at 328 nm and the emission spectra were collected from 350 to 550 nm.
WT-TTR was expressed and purified from an E. coli expression system as described previously. [Lashuel et al., Biochemistry 1999, 38:13560]. The covalent modifiers (Compounds 4 or 2) or the non-covalent TTR ligand Compound B2 (5 μL of a 1.44 mM solution in DMSO) were added to 1 mL of a solution of WT-TTR (0.2 mg/mL, 3.6 μM) in 10 mM phosphate, 100 mM KCl and 1 mM EDTA (pH 7.0) in a 2 mL Eppendorf tube. The samples were vortexed, and incubated for 18 hours at 25° C. The fluorescence changes were monitored using a Varian Cary 50 spectrofluorometer at 20° C. in a 1 cm path length quartz cell. The excitation slits was set at 5 nm and the emission slits was set at […]. The samples were excited at 328 nm and the emission spectra were collected from 330 to 550 nm (FIG. 4). The time-dependent fluorescence changes were monitored in similar manner (FIG. 5).

Test [2] has as its target T2, K15A-TTR. Nature of the test: RP-HPLC analysis of reaction with K15A-TTR homotetramer. The source says: A strictly analogous study performed with the K15A homotetrameric TTR mutant confirmed that K15 was essential for the observed chemoselective reaction between TTR and Compounds […] (FIG. 1A, bottom trace). […] However, it is important to note that Compounds 1-3 were only slightly less chemoselective (<5% reaction with K15A).
The ability of compounds A1 and A2, auxochromic analogs of previously discussed stilbenes [Klabunde et al., Nat. Struct. Biol. 2000, 7, 312-321; Connelly et al., Curr. Opin. Struc. Biol. 2010, 20, 54-62; Johnson et al., J. Med. Chem. 2008, 51, 6348-6358; Choi et al., J. Am. Chem. Soc. 2010, 132, 1359-1370; Choi et al., Nat. Chem. Biol. 2010, 6, 133-139; and Baures et al., Bioorg. Med. Chem. 1998, 6, 1389-1401] to form a chemoselective amide bond with the K15 residue of TTR was assessed by reverse-phase-HPLC and liquid chromatography-mass spectrometry analysis. […] The binding of the covalent modifier A2 to K15A-TTR (in the absence of amide bond conjugation) was confirmed by incubating A2 with K15A-TTR in phosphate buffer (pH 7) followed by K15A immunoisolation using a Sepharose® resin-conjugated anti-TTR polyclonal antibody [Purkey et al., Proc. Natl. Acad. Sci. U.S.A. 2001, 98, 5566-5571].
Recombinant WT-TTR was expressed as described previously [Lashuel et al., Biochemistry 38:13560-13573 (1999)]. For analysis of test compounds with TTR, each compound (1.5 μL in DMSO, 1.44 mM) was added to 300 μL of WT-TTR or K15A mutant TTR (3.6 μM, 10 mM sodium phosphate, 100 mM KCl, 1 mM EDTA, pH 7.0). The samples were vortexed, and incubated for 18 hours at 25° C. Reverse phase high performance liquid chromatography (RP-HPLC) was performed on a Water 600 E multi-solvent delivery system, using a Waters 486 tunable absorbance detector, a 717 autosampler, and a ThermoHypersil Keystone Betabasic-18 column μ150 Å pore size, 3 μm particle size, and mobile phase A; 0.1% TFA in 95% H2O+5% CH3CN and mobile phase B, 0.1% TFA in 95% CH3CN+5% H2O). Linear gradients were run from 100:0 to 0:100 A:B for 27 minutes.

With `Cc1cc(/C=C/c2cccc(C(=O)Sc3ccccc3)c2)cc(C)c1O` [Compound 2, (E)-S-phenyl 3-(4-hydroxy-3,5-dimethylstyryl)benzothioate], on WT-TTR (WT-TTR […], compound 7.2 μM), the “t50 of conjugation to WT-TTR by fluorescence” value came to 22 min and the “increase in fluorescence intensity with WT-TTR vs compound alone in buffer” value is “about 1100 fold”. Moreover, the “fluorescence upon binding to K15A-TTR (in words)” value (“fluorescence upon binding” below) on K15A-TTR [1] is “remain non-fluorescent”.
As to `Cc1cc(/C=C/c2cccc(C(=O)Oc3ccc(F)cc3)c2)cc(C)c1O` [Compound 4, (E)-4-fluorophenyl 3-(4-hydroxy-3,5-dimethylstyryl)benzoate], on K15A-TTR [2], the “reaction with K15A-TTR (in words)” value is recorded as “no reaction could be detected”. Besides, the “increase in fluorescence intensity with WT-TTR vs compound alone in buffer” value on WT-TTR (WT-TTR […], compound 7.2 μM) is given as “about 560 fold”. Further, the “fluorescence upon binding” value on K15A-TTR [1] is listed as “remain non-fluorescent”.
`Cc1cc(/C=C/c2cc(C(=O)Sc3ccc(F)cc3)cc(N(C)C)c2)cc(C)c1O` [Compound A2, (E)-S-4-fluorophenyl 3-(dimethylamino)-5-(4-hydroxy-3,5-dimethylstyryl)-benzothioate]: the “reaction with K15A-TTR (in words)” value on K15A-TTR [2] is reported as “no conjugation”. The “fluorescence after incubation with WT-TTR (in words)” value at WT-TTR (phosphate buffer pH 7, 18 hours) is “bright blue fluorescence”. The “fluorescence upon binding” value on K15A-TTR [1] is on record as “no significant fluorescence increase”.
